Assays:
[1] = Stability test: accelerated storage of formulations (CIPAC MT 46.3), mefenpyr-diethyl content by HPLC before and after aging; type: physicochemical; settings: stored at 54° C. for 1 week
Method: The stability of the mefenpyr-diethyl in these compositions was determined by aging samples in heated ovens having the same atmosphere therein, and then comparing the mefenpyr-diethyl content before and after aging to determine relative percentage of hydrolysis (RPH). RPH was calculated by the following equation: […]
Mefenpyr-diethyl content was determined by assaying the compositions with high-pressure liquid chromatography (HPLC) using reverse phase columns and eluants.
Samples prepared in Examples 4, 5 and 6 were stored at 54° C. for 1 week. The procedures are followed according to CIPAC MT 46.3. The concentration of mefenpyr-diethyl was measured at the end of each storage time by HPLC.

[2] = General stability of mefenpyr-diethyl forms (hydrolysis in water or on storage); type: physicochemical; settings: dissolved or dispersed in water, or during storage exposed to moisture, result in words
Source text: It will generally undergo significant hydrolysis when dissolved or dispersed in water. Furthermore, hydrolysis can occur during storage, particularly where the compound is exposed to moisture. As a result, the stability of mefenpyr-diethyl is of great concern with respect to providing the commercially available formulations. Therefore, there is a need to provide a novel form mefenpyr-diethyl with increased stability in formulations.
Accordingly, in an embodiment, the invention provides a novel crystalline form of mefenpyr-diethyl, termed “crystalline modification I”, and a process for its preparation, as well as its use in agrochemical compositions. […] Accordingly, in an embodiment, the invention also provides compositions for controlling undesirable plant growth, such as weeds, comprising the crystalline modification I of mefenpyr-diethyl with sulfonylurea herbicides, as a mixture with auxiliaries and carriers. The use of the crystalline modification I of mefenpyr-diethyl with sulfonylurea herbicides in the control of undesired plant growth and a method for the same are also provided by embodiments of the invention.

[3] = Example 4 oil based suspension concentrate (OD) with iodosulfuron-methyl-sodium, 10 weight % mefenpyr-diethyl
[4] = Example 5 soluble granules (SG) with mesosulfuron-methyl, 7 weight % mefenpyr-diethyl
[5] = Example 6 water dispersible granules (WG) with iodosulfuron-methyl-sodium, 7 weight % mefenpyr-diethyl

| Compound | RPH % (relative percentage of hydrolysis) [1, 3] [%] | RPH % (relative percentage of hydrolysis) [1, 4] [%] | RPH % (relative percentage of hydrolysis) [1, 5] [%] | stability (hydrolysis) [2] | stability (hydrolysis) ([2]; listed as mefenpyr-diethyl in amorphous state) |
| --- | --- | --- | --- | --- | --- |
| CCOC(=O)C1=NN(c2ccc(Cl)cc2Cl)C(C)(C(=O)OCC)C1 (racemic) [Mefenpyr-diethyl, crystalline modification I] [diethyl (RS)-1-(2,4-dichlorophenyl)-5-methyl-2-pyrazoline-3,5-dicarboxylate] | 0 | 0 | 0 | increased stability relative to the amorphous form |  |
| CCOC(=O)C1=NN(c2ccc(Cl)cc2Cl)C(C)(C(=O)OCC)C1 (racemic) [Amorphous mefenpyr-diethyl, diethyl (RS)-1-(2,4-dichlorophenyl)-5-methyl-2-pyrazoline-3,5-dicarboxylate] | 50 | 40 | 45 |  | highly unstable |

Reference: patent publication US9809555B2, “Form of mefenpyr-diethyl, a process for its preparation and use of the same” (ROTAM AGROCHEM INTERNATIONAL COMPANY LIMITED, priority 2015, dated 2017)
